The text below walks through data of patent publication US20230058623A1, “NOVEL HETEROARYL-TRIAZOLE COMPOUNDS AS PESTICIDES” (Bayer Aktiengesellschaft, priority 2019, published 2023).

A word on the mortality: it is the percentage killed.

Type in all cases: in vivo
The test system of assay [1] is Rhipicephalus (Boophilus) microplus larvae (strain Parkhurst, resistant against synthetic pyrethroids). Kind of assay: Rhipicephalus (Boophilus) microplus in-vitro contact test, larval cattle tick. Particulars: after 48 hours, read-out: activity (efficacy: larvae dead or moribund); for pest or weed control at 1 µg/cm2, 100 g/ha: application rate 1 μg/cm^2 (=100 g/ha); for pest or weed control at 5 µg/cm2, 500 g/ha: application rate 5 μg/cm^2 (=500 g/ha). As for the experimental part: Rhipicephalus (Boophilus) microplus—In-Vitro Contact Tests Larval Cattle Tick (Strain Parkhurst, Resistant Against Synthetic Pyrethroids)
9 mg compound is solved in 1 ml acetone and diluted with acetone to the desired concentration. 250 μL of the test solution is filled in 25 mL glass test tubes and homogeneously distributed on the inner walls by rotation and tilting on a shaking device (2 h at 30 rpm). With a compound concentration of 900 ppm, an inner surface of 44.7 cm^2 and a homogeneous distribution, a dose of 5 μg/cm^2 is achieved.
After the solvent has evaporated, each test tube is filled with 20-50 cattle tick larvae (Rhipicephalus microplus), closed with a perforated lid and incubated in a horizontal position at 85% relative humidity and 27° C. in an incubator. After 48 hours efficacy is determined. The larvae are patted on the ground of the tubes and negative geotactic behavior is recorded.
An efficacy of 100% means all larvae are dead or moribund; 0% means no larvae are dead or moribund.

For assay [2], the system named is larvae of the banded cucumber beetle (Diabrotica balteata). Kind of assay: Diabrotica balteata spray test. Particulars: 168 h, after 7 days, wheat seeds, read-out: activity (efficacy: seedlings grown); for pest or weed control at 32 µg/disc, 100 g/ha: application rate 100 g/ha (=32 μg/well); for pest or weed control at 160 µg/disc, 500 g/ha: application rate 500 g/ha (=160 μg/well). As for the experimental part: Diabrotica balteata—Spray Test
To produce a suitable preparation of active compound, 1 part by weight of active compound is mixed with the stated amount of solvent, and the concentrate is diluted with water, containing an emulsifier concentration of 1000 ppm, to the desired concentration. Further test concentrations are prepared by dilution with emulsifier containing water.
Soaked wheat seeds (Triticum aestivum) are placed in a multiple well plate filled with agar and some water and are incubated for 1 day to germinate (5 seeds per well). The germinated wheat seeds are sprayed with a test solution containing the desired concentration of the active ingredient. Afterwards each unit is infected with 10-20 larvae of the banded cucumber beetle (Diabrotica balteata).
After 7 days efficacy in % is determined. 100% means all the seedlings have grown up like in the untreated, uninfected control; 0% means none of the seedlings have grown.

The subject of assay [3] is green peach aphid (Myzus persicae). Kind of assay: Myzus persicae oral test. Conditions: 120 h, read-out: activity (mortality). As for the experimental part:
Solvent: 100 parts by weight acetone
To produce a suitable preparation of active compound, 1 part by weight of active compound is mixed with the stated amount of solvent, and the concentrate is diluted with water to the desired concentration.
50 μL compound solution is filled in microtiter plates and 150 μL IPL41 insect medium (33%+15% sugar) is added to obtain a total volume of 200 μL per well. Afterwards the plates are sealed with parafilm through which a mixed population of the green peach aphid (Myzus persicae) can suck on the compound preparation.
After 5 days mortality in % is determined. 100% means all aphids have been killed and 0% means none of the aphids have been killed.

Assay [4] relates to fall armyworm larvae (Spodoptera frugiperda). As to the kind of experiment: Spodoptera frugiperda spray test. Particulars: 168 h, application rate 100 g/ha, after 7 days, maize leaf sections. As for the experimental part:
Spodoptera frugiperda—Spray Test
To produce a suitable preparation of active compound, 1 part by weight of active compound is mixed with the stated amount of solvents and is diluted with water, containing an emulsifier concentration of 1000 ppm, to the desired concentration. Further test concentrations are prepared by dilution with emulsifier containing water.
Maize (Zea mays) leaf sections are sprayed with a preparation of the active ingredient of the desired concentration. Once dry, the leaf sections are infested with fall armyworm larvae (Spodoptera frugiperda).
After 7 days mortality in % is determined. 100% means all caterpillars have been killed and 0% means none of the caterpillars have been killed.

With `CC1CCN(C(=O)c2ccc(-n3ncnc3[C@H](C)NC(=O)c3cc(C(F)(F)F)cc(C(F)(F)F)c3)nc2)CC1` [Example I-73], in assay [1], the pest or weed control at 1 µg/cm2, 100 g/ha stood at 100% and the pest or weed control at 5 µg/cm2, 500 g/ha was found to be 100%. The pest or weed control at 32 µg/disc, 100 g/ha in assay [2] is 100%.

Turning to `CON(C)C(=O)c1cnc(-n2nc(C)nc2[C@H](C)NC(=O)c2cc(C(F)(F)F)cc(C(F)(F)F)c2)s1` [Example I-97], in assay [1], the pest or weed control at 1 µg/cm2, 100 g/ha worked out at 100% and the pest or weed control at 5 µg/cm2, 500 g/ha stood at 100%. In assay [2], the pest or weed control at 32 µg/disc, 100 g/ha came to 100%. In assay [3], the mortality at 4 ppm is 100%.

For `Cc1nc([C@H](C)NC(=O)c2cc(C(F)(F)F)cc(C(F)(F)F)c2)n(-c2ccc(C(=O)N3CCC(C)CC3)cn2)n1` [Example I-74], in assay [1], the pest or weed control at 1 µg/cm2, 100 g/ha came to 90% and the pest or weed control at 5 µg/cm2, 500 g/ha worked out at 90%. Moreover, the pest or weed control at 32 µg/disc, 100 g/ha in assay [2] was determined as 100%.

Take `C[C@H](NC(=O)c1cc(C(F)(F)F)cc(C(F)(F)F)c1)c1ncnn1-c1ccc(C(=O)NC2CCSCC2)cn1` [Example I-113]: in assay [1], the pest or weed control at 1 µg/cm2, 100 g/ha turned out to be 100% and the pest or weed control at 5 µg/cm2, 500 g/ha is 100%. In assay [3], the mortality at 4 ppm turned out to be 100%.

On to `C[C@H](NC(=O)c1cc(C(F)(F)F)cc(C(F)(F)F)c1)c1ncnn1-c1ccc(N2CCOCC2=O)cn1` [Example I-128, N-[(1S)-1-{1-[5-(3-oxomorpholin-4-yl)pyridin-2-yl]-1H-1,2,4-triazol-5-yl}ethyl]-3,5-bis(trifluoromethyl)benzamide], for which, in assay [1], the pest or weed control at 1 µg/cm2, 100 g/ha came to 100% and the pest or weed control at 5 µg/cm2, 500 g/ha was 100%. The mortality at 4 ppm in assay [3] turned out to be 100%.

Consider `C[C@H](NC(=O)c1cc(Cl)cc(S(C)(=O)=O)c1)c1ncnn1-c1ccc(C(=O)N2CCOCC2)cn1` [Example I-119], for which the mortality at 4 ppm in assay [3] is 100%.

As to `C[C@H](NC(=O)c1cc(Cl)cc(C(F)(F)F)c1)c1ncnn1-c1ccc(S(=O)(=O)N2CCOCC2)cn1` [Example I-123], in assay [1], the pest or weed control at 1 µg/cm2, 100 g/ha worked out at 100% and the pest or weed control at 5 µg/cm2, 500 g/ha worked out at 100%. Moreover, in assay [2], the pest or weed control at 32 µg/disc, 100 g/ha amounted to 80%.

Regarding `C[C@H](NC(=O)c1cc(C(F)(F)F)cc(C(F)(F)F)c1)c1ncnn1-c1cnc(C(=O)N2CCCC2)cn1` [Example I-144], the pest or weed control at 32 µg/disc, 100 g/ha in assay [2] is 100%. In assay [4], this compound had a mortality at 100 g/ha of 100%.

Consider `C[C@H](NC(=O)c1cc(C(F)(F)F)cc(C(F)(F)F)c1)c1ncnn1-c1ccc(N2CCOCC2)cn1` [Example I-44, N-[(1S)-1-{1-[5-(morpholin-4-yl)pyridin-2-yl]-1H-1,2,4-triazol-5-yl}ethyl]-3,5-bis(trifluoromethyl)benzamide], for which, in assay [1], the pest or weed control at 1 µg/cm2, 100 g/ha was found to be 100% and the pest or weed control at 5 µg/cm2, 500 g/ha came out at 100%. For the same compound, in assay [2], the pest or weed control at 32 µg/disc, 100 g/ha amounted to 100%. For the same compound, the mortality at 100 g/ha in assay [4] was found to be 100%.

Regarding `C[C@H](NC(=O)c1cc(C(F)(F)F)cc(C(F)(F)F)c1)c1ncnn1-c1ccc(C(=O)NC2CC(C)(C)OC(C)(C)C2)cn1` [Example I-64], in assay [1], the pest or weed control at 1 µg/cm2, 100 g/ha was found to be 90% and the pest or weed control at 5 µg/cm2, 500 g/ha is 80%. Besides, in assay [2], the pest or weed control at 32 µg/disc, 100 g/ha turned out to be 100%.

`C[C@H](NC(=O)c1cc(C(F)(F)F)cc(C(F)(F)F)c1)c1ncnn1-c1ccc(C(=O)NC2CCOCC2)cn1` [Example I-111]: in assay [1], the pest or weed control at 1 µg/cm2, 100 g/ha was 100% and the pest or weed control at 5 µg/cm2, 500 g/ha worked out at 100%. For the same compound, the mortality at 4 ppm in assay [3] came out at 90%.

For the compound `C[C@H](NC(=O)c1cc(Cl)cc(C(F)(F)F)c1)c1ncnn1-c1ccc(N2CCCCC2=O)cn1` [Example I-57], in assay [3], the mortality at 4 ppm was 90%.

As for `C[C@@H]1CN(C(=O)c2cnc(-n3ncnc3[C@H](C)NC(=O)c3cc(OC(F)(F)F)cc(S(C)(=O)=O)c3)cn2)C[C@H](C)O1` [Example I-142], the mortality at 100 g/ha in assay [4] came to 100%.

As to `CC(NC(=O)c1cc(F)cc(C#N)c1)c1nc(C(F)F)nn1-c1ccc(C(=O)N2CCOCC2)cn1` (centres unmarked) [Example I-60], in assay [2], the pest or weed control at 32 µg/disc, 100 g/ha worked out at 100% and the pest or weed control at 160 µg/disc, 500 g/ha was determined as 100%.

Turning to `Cc1nc([C@H](C)NC(=O)c2cc(OC(F)(F)F)cc(C3CC3)c2)n(-c2ncc(C(=O)N3CCOCC3)s2)n1` [Example I-137], in assay [4], the mortality at 100 g/ha is 100%.

`C[C@@H]1CN(C(=O)c2ccc(-n3nc(C4CC4)nc3[C@H](C)NC(=O)c3cc(Cl)cc(S(=O)(=O)C4CC4)c3)nc2)C[C@H](C)O1` [Example I-91]: the pest or weed control at 32 µg/disc, 100 g/ha in assay [2] amounted to 100%. Besides, the mortality at 100 g/ha in assay [4] worked out at 100%.

`C[C@H](NC(=O)c1cc(Br)cc(Br)c1)c1ncnn1-c1ccc(N2CCOCC2)cn1` [Example I-103]: in assay [1], the pest or weed control at 1 µg/cm2, 100 g/ha amounted to 90% and the pest or weed control at 5 µg/cm2, 500 g/ha is 100%. For the same compound, the pest or weed control at 32 µg/disc, 100 g/ha in assay [2] was found to be 100%.

With `C[C@@H]1CN(C(=O)c2cnc(-n3ncnc3[C@H](C)NC(=O)c3cc(C(F)(F)F)cc(C(F)(F)F)c3)nc2)C[C@H](C)O1` [Example I-146], the pest or weed control at 32 µg/disc, 100 g/ha in assay [2] is 100%. The same compound gave a mortality at 100 g/ha in assay [4] of 100%.

In the case of `C[C@H](NC(=O)c1cc(Cl)cc(C(F)(F)F)c1)c1ncnn1-c1ccc(C(=O)N2[C@@H](C)CCC[C@@H]2C)cn1` [Example I-39], in assay [2], the pest or weed control at 160 µg/disc, 500 g/ha was determined as 100%.

Regarding `C[C@H](NC(=O)c1cc(OC(F)(F)F)cc(C2CC2)c1)c1ncnn1-c1ccc(S(=O)(=O)N2CCOCC2)cn1` [Example I-125], in assay [1], the pest or weed control at 1 µg/cm2, 100 g/ha is 100% and the pest or weed control at 5 µg/cm2, 500 g/ha amounted to 100%. In assay [2], the pest or weed control at 32 µg/disc, 100 g/ha came out at 100% and the pest or weed control at 160 µg/disc, 500 g/ha was 100%.

`Cc1nc([C@H](C)NC(=O)c2cc(Cl)cc(C(F)(F)F)c2)n(-c2ccc(C(=O)N3CC(O)C3)cn2)n1` [Example I-21]: the mortality at 4 ppm in assay [3] was 100%.

On to `C[C@H](NC(=O)c1cc(C(F)(F)F)cc(C(F)(F)F)c1)c1ncnn1-c1ccc(S(=O)(=O)N2CCOCC2)cn1` [Example I-127, N-[(1S)-1-{1-[5-(morpholin-4-ylsulfonyl)pyridin-2-yl]-1H-1,2,4-triazol-5-yl}ethyl]-3,5-bis(trifluoromethyl)benzamide], for which, in assay [1], the pest or weed control at 1 µg/cm2, 100 g/ha came to 100% and the pest or weed control at 5 µg/cm2, 500 g/ha came out at 100%.

As to `CC(NC(=O)c1cc(Br)cc(Br)c1)c1nc(Br)nn1-c1ccc(C(=O)N2CCOCC2)cn1` (centres unmarked) [Example I-85], in assay [1], the pest or weed control at 1 µg/cm2, 100 g/ha came to 100% and the pest or weed control at 5 µg/cm2, 500 g/ha is 100%.

Take `C[C@H](NC(=O)c1cc(Cl)cc(S(C)(=O)=O)c1)c1ncnn1-c1ccc(C(=O)N2CCS(=O)(=O)CC2)cn1` [Example I-96]: in assay [3], the mortality at 4 ppm came to 100%.

Take `C[C@H](NC(=O)c1cc(Cl)cc(S(=O)(=O)C(F)(F)F)c1)c1ncnn1-c1ccc(N2CCOCC2)cn1` [Example I-105]: in assay [1], the pest or weed control at 1 µg/cm2, 100 g/ha turned out to be 100% and the pest or weed control at 5 µg/cm2, 500 g/ha amounted to 100%. Also, in assay [2], the pest or weed control at 32 µg/disc, 100 g/ha worked out at 100%. The compound further gave a mortality at 100 g/ha in assay [4] of 83%.
